Measured values: ChEMBL document CHEMBL5252512, “Recent Progress in the Development of HIV-1 Protease Inhibitors for the Treatment of HIV/AIDS” (J Med Chem, 2016)
Where a SMILES comes first, the peptide text is derived from it. Bridges are numbered along the chain shown (N, C = ends). Roman numbers before positions name the chains, in order. [ ]: non-standard residue; d: D form. The star is where a group is joined. ξ: configuration not given here. C16 diacid = O=C(O)CCCCCCCCCCCCCCC(=O)*; Phe(4-NH2) = Nc1ccc(C[C@H](N)C(=O)O)cc1; Ile(3ξ) = CCC(C)[C@H](N)C(=O)O; NHPhenethyl = c1ccc(CCN*)cc1

Columns and labels:
[1] = biological target: T1, Human immunodeficiency virus type 1 protease (Human immunodeficiency virus 1, UniProt Q72874); assay: Binding affinity to wild-type HIV1 protease expressed in Escherichia coli by fluorometric assay
[2] = biological target: T1, Human immunodeficiency virus type 1 protease; assay: Binding affinity to HIV1 protease assessed as inhibition constant
[3] = biological target: T1, Human immunodeficiency virus type 1 protease; assay: Inhibition of recombinant HIV1 Protease
[4] = tested on: Human immunodeficiency virus 1; assay: Antiviral activity against wild type HIV1 ERS104pre infected in human PBMC cells assessed as inhibition of virus-induced cytopathic effect measured after 7 days by MTT assay; assay type: functional, organism-based; details: Human immunodeficiency virus 1, ERS104pre, 168 h
[5] = tested on: Human immunodeficiency virus 1; assay: Antiviral activity against multidrug-resistant HIV1-TM infected in phytohemagglutinin-activated human PBMC cells assessed as inhibition of virus-induced cytopathic effect measured after 7 days by MTT assay; assay type: functional, organism-based; details: Human immunodeficiency virus 1, TM, 168 h
[6] = tested on: Human immunodeficiency virus 1; assay: Antiviral activity against multidrug-resistant HIV1-MM infected in phytohemagglutinin-activated human PBMC cells assessed as inhibition of virus-induced cytopathic effect measured after 7 days by MTT assay; assay type: functional, organism-based; details: Human immunodeficiency virus 1, MM, 168 h
[7] = tested on: Human immunodeficiency virus 1; assay: Antiviral activity against multidrug-resistant HIV1-JSL infected in phytohemagglutinin-activated human PBMC cells assessed as inhibition of virus-induced cytopathic effect measured after 7 days by MTT assay; assay type: functional, organism-based; details: Human immunodeficiency virus 1, JSL, 168 h
[8] = tested on: Human immunodeficiency virus 1; assay: Antiviral activity against multidrug-resistant HIV1-B infected in phytohemagglutinin-activated human PBMC cells assessed as inhibition of virus-induced cytopathic effect measured after 7 days by MTT assay; assay type: functional, organism-based; details: Human immunodeficiency virus 1, B, 168 h
[9] = tested on: Human immunodeficiency virus 1; assay: Antiviral activity against multidrug-resistant HIV1-C infected in phytohemagglutinin-activated human PBMC cells assessed as inhibition of virus-induced cytopathic effect measured after 7 days by MTT assay; assay type: functional, organism-based; details: Human immunodeficiency virus 1, C, 168 h
[10] = tested on: Human immunodeficiency virus 1; assay: Antiviral activity against multidrug-resistant HIV1-G infected in phytohemagglutinin-activated human PBMC cells assessed as inhibition of virus-induced cytopathic effect measured after 7 days by MTT assay; assay type: functional, organism-based; details: Human immunodeficiency virus 1, G, 168 h
[11] = tested on: Human immunodeficiency virus 1; assay: Ratio of EC50 for antiviral activity against HIV1-TM to EC50 for antiviral activity against wild type HIV1 ERS104pre; assay type: functional
[12] = tested on: Human immunodeficiency virus 1; assay: Ratio of EC50 for antiviral activity against HIV1-MM to EC50 for antiviral activity against wild type HIV1 ERS104pre; assay type: functional
[13] = tested on: Human immunodeficiency virus 1; assay: Ratio of EC50 for antiviral activity against HIV1-JSL to EC50 for antiviral activity against wild type HIV1 ERS104pre; assay type: functional
[14] = tested on: Human immunodeficiency virus 1; assay: Ratio of EC50 for antiviral activity against HIV1-B to EC50 for antiviral activity against wild type HIV1 ERS104pre; assay type: functional
[15] = tested on: Human immunodeficiency virus 1; assay: Ratio of EC50 for antiviral activity against HIV1-C to EC50 for antiviral activity against wild type HIV1 ERS104pre; assay type: functional
[16] = tested on: Human immunodeficiency virus 1; assay: Ratio of EC50 for antiviral activity against HIV1-G to EC50 for antiviral activity against wild type HIV1 ERS104pre; assay type: functional
[17] = tested on: Human immunodeficiency virus 1; assay: Antiviral activity against darunavir-resistant HIV1 10P infected in phytohemagglutinin-activated human PBMC cells assessed as inhibition of virus-induced cytopathic effect measured after 7 days by MTT assay; assay type: functional, organism-based; details: Human immunodeficiency virus 1, 10P, 168 h
[18] = tested on: Human immunodeficiency virus 1; assay: Antiviral activity against darunavir-resistant HIV1 20P infected in phytohemagglutinin-activated human PBMC cells assessed as inhibition of virus-induced cytopathic effect measured after 7 days by MTT assay; assay type: functional, organism-based; details: Human immunodeficiency virus 1, 20P, 168 h
[19] = tested on: Human immunodeficiency virus 1; assay: Antiviral activity against HIV1 LAI infected in human MT2 cells assessed as inhibition of virus-induced cytopathic effect by MTT assay; assay type: functional, organism-based; details: Human immunodeficiency virus 1, LAI

Work on `O=C(Cc1cccc2ccccc12)Nc1ccccc1CN1C[C@H](O)[C@@H](O)CN(Cc2ccccc2)S1(=O)=O` yielded a Ki [1] of 0.14 µM.

`COC(=O)[C@@H](NC(=O)[C@H](CC(C)C)NC(=O)[C@@H](NC(=O)CCCOc1ccc2ccc(OCCCC(=O)N[C@H](CCCCNC(=O)OCc3ccccc3)C(=O)NNC(=O)c3cc(NC(C)=O)ccc3OC)cc2c1)C(C)C)C(C)C` was tested, and the Ki [2] was 0.06 µM.

`CCC(C)N(CC(=O)N(CC(N)=O)Cc1ccc(N)cc1)C(=O)CN(CCSC)C(=O)CCCCCCCCCCCCCCC(=O)N(CC(N)=O)CC(=O)N(CC(=O)O)Cc1ccccc1` (centres undefined) gave a Ki [2] of 0.801 µM.

In the case of `COc1ccc(S(=O)(=O)N(CC(C)C)C[C@@H](O)[C@H](Cc2ccccc2)n2cc(CNC(=O)c3ccc(CNC(=O)OC(C)(C)C)cc3)nn2)cc1`, the Ki [2] is reported as 0.004 µM and the IC50 [3] is reported as 0.013 µM.

Work on `COc1ccc(S(=O)(=O)N(CC(C)C)C[C@@H](O)[C@H](Cc2ccccc2)NC(=O)O[C@@H]2CO[C@@H]3O[C@H]4OCC[C@H]4[C@@H]32)cc1` yielded an EC50 [4] of 0.347 µM, an EC50 [5] of 0.53 µM and an EC50 [6] of 0.787 µM. It also gave an EC50 [7] greater than 1 µM, an EC50 [8] of 0.612 µM and an EC50 [9] of 0.514 µM. For the same molecule, the EC50 [10] was 0.656 µM, the “Ratio EC50” value [11] was 2 and the “Ratio EC50” value [12] was 2. The “Ratio EC50” value [13] was greater than 3, the “Ratio EC50” value [14] was 2 and the “Ratio EC50” value [15] was 1. For the same molecule, the “Ratio EC50” value [16] was 2, the EC50 [17] was greater than 1 µM and the EC50 [18] was greater than 1 µM.

In the case of `O=C1C[C@@H](NC(=O)[C@H](OCc2cccc(Br)c2)[C@H](O)[C@@H](O)[C@@H](OCc2cccc(Br)c2)C(=O)N[C@H]2c3ccccc3C[C@H]2O)c2ccccc21`, the Ki [2] is reported as 0.019 µM.

Molecule `COc1ccc(S(=O)(=O)N(CC(C)C)C[C@@H](O)[C@H](Cc2ccccc2)n2cc(COC(=O)N[C@H]3c4ccccc4C[C@H]3O)nn2)cc1` has a Ki [2] of 0.0017 µM and an IC50 [3] of 0.006 µM.

For `CC(C)(C)NC(=O)[C@@H]1C[C@@H]2CCCC[C@@H]2CN1C[C@@H](O)[C@H](Cc1ccccc1)NC(=O)[C@H](CC(N)=O)NC(=O)c1ccc2ccccc2n1`, the EC50 [4] was 0.004 µM, the EC50 [5] was 0.1 µM and the EC50 [6] was 0.11 µM. For the same molecule, the EC50 [7] was 0.29 µM, the EC50 [8] was 0.27 µM and the EC50 [9] was 0.035 µM. For the same molecule, the EC50 [10] was 0.033 µM.

Work on `CC(C)C[C@H](NC(=O)[C@@H](NC(=O)CCCCCCCCCCCCCCC(=O)N[C@@H](CC(N)=O)C(=O)N[C@@H](Cc1ccccc1)C(=O)O)[C@@H](C)O)C(=O)NCCc1cccc(O)c1` yielded an IC50 [3] of 1.13 µM.

`CC(C)C[C@H](NC(=O)[C@@H](NC(=O)CCCCCCCCCCCCCCC(=O)N[C@@H](CC(N)=O)C(=O)N[C@@H](Cc1ccccc1)C(=O)O)[C@@H](C)O)C(=O)NCCc1ccccc1` (I: Asn-Phe-OH / II: Thr-Leu-NHPhenethyl; linker I:N-II:N via C16 diacid) gave an IC50 [3] of 5.8 µM.

`O=C(Cc1cccc2ccccc12)Nc1ccccc1CN1C[C@H](O)[C@@H](O)CN(Cc2ccccc2NC(=O)Cc2cccc3ccccc23)S1(=O)=O` gave a Ki [1] of 0.02 µM.

With `CCC(C)[C@H](NC(=O)[C@H](CCSC)NC(=O)CCCCCCCCCCCCCCC(=O)N[C@@H](CC(N)=O)C(=O)N[C@@H](Cc1ccccc1)C(=O)O)C(=O)N[C@@H](Cc1ccc(N)cc1)C(N)=O` (stereo partly drawn) ({Phe-Asn-C16 diacid}-Met-[Ile(3ξ)]-[Phe(4-NH2)]-NH2) the Ki [2] was 0.085 µM.

Molecule `COc1ccc(S(=O)(=O)N(CC(C)C)C[C@@H](O)[C@H](Cc2ccccc2)NC(=O)O[C@H]2CO[C@H]3C[C@@H]4OCC[C@@H]4[C@H]32)cc1` has a Ki [2] of 0.00139 µM.

`CC(C)CN(C[C@@H](O)[C@H](Cc1ccccc1)NC(=O)O[C@H]1CO[C@H]2OCC[C@H]21)S(=O)(=O)c1ccc2c(c1)OCO2` showed an EC50 [4] of 0.0005 µM, an EC50 [5] of 0.0032 µM and an EC50 [6] of 0.0038 µM. For the same molecule, the EC50 [7] was 0.006 µM, the EC50 [8] was 0.0039 µM and the EC50 [9] was 0.0027 µM. The EC50 [10] was 0.0034 µM, the “Ratio EC50” value [11] was 6 and the “Ratio EC50” value [12] was 8. For the same molecule, the “Ratio EC50” value [13] was 12, the “Ratio EC50” value [14] was 8 and the “Ratio EC50” value [15] was 5. For the same molecule, the “Ratio EC50” value [16] was 7.

`Cc1c(O)cccc1C(=O)N[C@@H](CSc1ccccc1)[C@H](O)CN1C[C@H]2CCCC[C@H]2C[C@H]1C(=O)NC(C)(C)C` was tested, and the EC50 [9] was 0.25 µM.

Work on `O=C(Cc1cccc2ccccc12)O[C@H]1CNC[C@@H]1OC(=O)Cc1cccc2ccccc12` yielded a Ki [2] of 20 µM.

`NC(=O)CN(Cc1ccc(N)cc1)C(=O)CN(CC1CCCCC1)C(=O)CN(Cc1ccc(N)cc1)C(=O)CCCCCCCCCCCCCCC(=O)N(CC(=O)N(CC(=O)O)Cc1ccccc1)Cc1ccc(N)cc1` gave a Ki [2] of 0.135 µM.

Molecule `CC(C)CN(C[C@@H](O)[C@H](Cc1ccccc1)NC(=O)O[C@H]1CCOC1)S(=O)(=O)c1ccc(N)cc1` has an EC50 [4] of 0.029 µM, an EC50 [5] of 0.3 µM and an EC50 [6] of 0.27 µM. It also gave an EC50 [7] of 0.43 µM, an EC50 [8] of 0.36 µM and an EC50 [9] of 0.21 µM. The EC50 [10] was 0.31 µM, the EC50 [17] was greater than 1 µM and the EC50 [18] was greater than 1 µM.

In the case of `CC(C)C[C@H](NC(=O)[C@@H](NC(=O)CCCCCCCCCCCCCCC(=O)N[C@@H](CC(N)=O)C(=O)N[C@@H](Cc1ccccc1)C(=O)O)[C@@H](C)O)C(=O)NCCc1ccc(N)cc1`, the IC50 [3] is reported as 0.65 µM.

In the case of `COc1cccc2c1C(=O)C[C@H]2NC(=O)[C@H](OCc1cccc(Br)c1)[C@H](O)[C@@H](O)[C@@H](OCc1cccc(Br)c1)C(=O)N[C@H]1c2ccccc2C[C@H]1O`, the Ki [2] is reported as 0.011 µM.

`C[C@H](Cc1cc2c(cc1O)OCO2)[C@H](C)Cc1cc2c(cc1O)OCO2` showed an IC50 [3] of 5.6 µM.

`O=S1(=O)N(Cc2ccccc2-c2cc3ccccc3o2)C[C@H](O)[C@@H](O)CN1Cc1ccccc1-c1cc2ccccc2o1` showed a Ki [1] of 0.53 µM.

`COc1ccc(S(=O)(=O)N(CC(C)C)C[C@@H](O)[C@@H]2Cc3ccc(cc3)OC/C=C/CCc3c(O)cccc3C(=O)N2)cc1` showed a Ki [2] of 0.0002 µM and an IC50 [19] of 0.21 µM.

With `CC(C)C[C@H](NC(=O)[C@@H](NC(=O)CCCCCCCCCCCCCCC(=O)N[C@@H](CC(N)=O)C(=O)N[C@@H](Cc1ccccc1)C(=O)O)[C@@H](C)O)C(=O)NCCc1ccc(Oc2ccc(O)cc2)cc1` the IC50 [3] was 0.096 µM.

Work on `COC(=O)[C@@H](NC(=O)[C@H](CC(C)C)NC(=O)[C@@H](NC(=O)CCCOc1ccc2ccc(OCCCC(=O)N[C@H](CCCCNC(=O)OCc3ccccc3)C(=O)Nc3cccn(CC(N)=O)c3=O)cc2c1)C(C)C)C(C)C` yielded a Ki [2] of 0.04 µM.

For `O=C(Cc1cccc2ccccc12)Nc1ccccc1CN1C[C@H](O)[C@@H](O)CN(Cc2ccccc2Br)S1(=O)=O`, the Ki [1] was 0.28 µM.
